# Measured values: patent publication US6068976A, “Modulators of ob gene and screening methods therefor” (priority 1996, dated 2000)
# Read-outs that look alike come from different tables or passages of the source. No end group written: not given here.
# Experiments:
# [1] = tested on: PPAR nuclear hormone receptors; conditions: cited from earlier work
# ob gene [2] = test: In vivo ob mRNA levels in adipose tissue of treated rats (Northern/dot blot, actin-normalised); design: species or system rat
# ob gene [3] = test: Ex vivo endogenous ob mRNA expression in rat primary adipocytes; format: cell-based; conditions: for ob mRNA expression in primary rat adipocytes: 24 hr; for production of ob messenger RNA in rat primary adipocytes: insulin 100 nM or dexamethasone 33 nM
# human ob promoter [4] = test: Human ob promoter-luciferase reporter in transfected 3T3-L1 cells
# [5] = In vivo body weight, food intake and tissue weights in treated rats; conditions: for Epidydimal fat pad weight / Liver weight / Body Mass: oral gavage; for Epidydimal fat pad weight: control 2.5 ± 0.3, * p < 0.05; for Liver weight: control 16.8 ± 1.3; for Body Mass: control 344 ± 22; for food consumption: 4 days, triamcinolone 20 or dexamethasone 3.7 μg/g body weight/day
# human ob promoter [6] = test: Human ob promoter-luciferase reporter in transfected rat primary adipocytes
# [7] = tested on: 3T3-F442A and ob 17 cells; conditions: cited from earlier work
# [8] = Body weight and food intake of male mice injected with ethinylestradiol; format: in vivo, mouse; conditions: 0.75 μg/g body weight, 7 day
# [9] = cited from earlier work
# cachexia = conditions: cancer patients; cited from earlier work
# [10] = in vivo; cited from earlier work
# [11] = 4 days, triamcinolone 20 or dexamethasone 3.7 μg/g body weight/day
# [12] = fenofibrate 0.5% w/w in food, 14 days
# [13] = hydrocortisone 1, 10 or 100 μg/g body weight, s.c., once daily, 20 days
# [14] = hydrocortisone 100 μg/g body weight, once daily, 20 days
molecule,measurement,setting,value
"O=C(O)COc1cc(Cl)c(Cl)cc1Cl [2,4,5-trichlorophenoxyacetic acid]",transcriptional activity of PPARs,[1],transcriptional activity of the PPARs can be induced
"CN(CCOc1ccc(CC2SC(=O)NC2=O)cc1)c1ccccn1 (centres unmarked) [BRL 49653, 5-[[4-[2-(methyl-2-pyridinylamino)ethoxy]phenyl]methyl]-2,4-thiazolidinedione]","effect on ob mRNA expression, dose dependence","ob gene [2]; BRL 49653 0, 1, 2 or 5 mg/kg/day, 7 days",dose-dependent
same,decrease of ob mRNA levels in epidydimal fat pads,"ob gene [2]; BRL 49653 5 mg/kg/day, 7 days",40%
same,ob mRNA expression in primary rat adipocytes,"ob gene [3]; 100 μM, three independent experiments",reduced ob mRNA expression significantly
same,suppression of ob gene expression by PPARγ in primary adipocytes,ob gene [3]; primary adipocytes,amplifies the suppression of ob gene expression by PPARγ in primary adipocytes
same,effect on pGL3-OB1 in addition to PPARγ,human ob promoter [4]; with PPARγ cotransfection,slight cumulative effect
same,body or liver weight,"[5]; 0, 1, 2, and 5 mg/kg/day over 7 days",no change in either body or liver weight
same,ratio of adipose tissue/body weight after treatment,"[5]; 5 mg/kg/day, 7 days, 0.75%±0.1 before, p<0.05",1.2%±0.2
same,food intake,"[5]; 5, 10, 20 mg/kg/day over 7 days",significant dose dependent increase in food intake
same,Epidydimal fat pad weight,"[5]; BRL 49653 1 mg/kg/day, 7 days",3.3 ± 0.2 g
same,Liver weight,"[5]; BRL 49653 1 mg/kg/day, 7 days",17.9 ± 1.3 g
same,Body Mass,"[5]; BRL 49653 1 mg/kg/day, 7 days, mean ± SD",355 ± 21 g
same,Epidydimal fat pad weight,"[5]; BRL 49653 2 mg/kg/day, 7 days",3.8 ± 0.5 g
same,Liver weight,"[5]; BRL 49653 2 mg/kg/day, 7 days",18.9 ± 0.6 g
same,Body Mass,"[5]; BRL 49653 2 mg/kg/day, 7 days",361 ± 18 g
same,Epidydimal fat pad weight,"[5]; BRL 49653 5 mg/kg/day, 7 days",4.0 ± 0.6 g
same,Liver weight,"[5]; BRL 49653 5 mg/kg/day, 7 days",17.4 ± 1.8 g
same,Body Mass,"[5]; BRL 49653 5 mg/kg/day, 7 days",338 ± 9 g
same,epidydimal fat pad weight (trend),"[5]; BRL 49653 1, 2, 5 mg/kg/day, 7 days",dose-dependent increase in epidydimal fat pad weight
same,food intake and body weight (summary statement),[5]; rats,increasing food intake and body weight in rats
same,food intake,"[5]; relatively low doses (1, 2, 5 mg/kg/day), 7 days","food intake showed a tendency to decrease, although no statistical significance was obtained"
same,additional effect on ob promoter activity,"human ob promoter [6]; 10 μM, with PPARγ cotransfection",no further effect
same,activity at 10 µM,"human ob promoter [6]; Homo sapiens, Adipocyte, read-out: ob promoter activity reduced to",40%
CC(C)(Oc1ccc(Cl)cc1)C(=O)O [Clofibric acid],transcriptional activity of PPARs,[1],stimulate transcriptional activity of the PPAR nuclear hormone receptors
"C[C@]12CC[C@H](O)CC1=CC[C@@H]1[C@@H]2CC[C@]2(C)C(=O)CC[C@@H]12 [DHEA, Dihydroepiandosterone]",food intake,"[5]; DHEA, short experiment, rats",significant decrease in food intake
same,gain in body weight,"[5]; DHEA, three day treatment, rats",capable of reducing the gain in body weight already after a three day treatment period
"CCc1ccc(CCOc2ccc(CC3SC(=O)NC3=O)cc2)nc1 (centres unmarked) [Pioglitazone, pioglitazone]",inhibition at 10 µM,"human ob promoter [6]; Homo sapiens, Adipocyte, read-out: decrease in pGL3-OB1 expression",~30%
same,inhibition at 10 µM,"human ob promoter [6]; Homo sapiens, Adipocyte, read-out: inhibition of pGL3-OB1 expression",~50%
CC1=C(/C=C/C(C)=C/C=C/C(C)=C/C(=O)O)C(C)(C)CCC1 [Retinoic acid],adipogenesis,[7],inhibit adipogenesis
C[C@@H]1C[C@H]2[C@@H]3CCC4=CC(=O)C=C[C@]4(C)[C@@]3(F)[C@@H](O)C[C@]2(C)[C@@]1(O)C(=O)CO [dexamethasone],ob mRNA levels,ob gene [2]; [11],increase of ob mRNA levels
same,increase of ob mRNA levels in rat adipose tissue,ob gene [2]; within 24 hr after a single injection of dexamethasone (3.7 μg/g),2.2 fold
same,"stimulation of ob gene expression, comparison with insulin","ob gene [3]; dexamethasone 33 nM vs insulin 100 nM, 48 hours",stronger stimulation of ob gene expression than insulin
same,production of ob messenger RNA in rat primary adipocytes,ob gene [3]; 48 hours,stimulated production of the ob messenger RNA
same,food consumption,[5],reduced food consumption
CCCCC(CC)COC(=O)c1ccccc1C(=O)OCC(CC)CCCC (centres unmarked) [di-(2-ethylhexyl)-phtalate],transcriptional activity of PPARs,[1],transcriptional activity of the PPARs can be induced
"C#C[C@]1(O)CC[C@H]2[C@@H]3CCc4cc(O)ccc4[C@H]3CC[C@@]21C [ethinyl estradiol, ethinylestradiol]",decrease in body weight,"[8]; injected, sham +1.81±1.04%",14.83±1.44%
same,food intake,[8]; male mice,important reduction in food intake
same,body weight effect under pair-feeding,"[9]; ovariectomized rats, pair-fed",pair-feeding abolished the effects of estrogens on body weight
same,body weight,"[9]; ovariectomized rats, substitution therapy",marked effect on body weight in ovariectomized rats
CC(C)(Oc1ccc(Cl)cc1)C(=O)OCCOC(=O)c1cccnc1 [etiofibrate],transcriptional activity of PPARs,[1],stimulate transcriptional activity of the PPAR nuclear hormone receptors
CC(C)OC(=O)C(C)(C)Oc1ccc(C(=O)c2ccc(Cl)cc2)cc1 [fenofibrate],ob mRNA levels,ob gene [2]; [12],did not result in a reduction of ob mRNA levels
same,transcriptional activity of PPARs,[1],stimulate transcriptional activity of the PPAR nuclear hormone receptors
same,body or adipose tissue weight,[5]; [12],did not result in a change in body or adipose tissue weight
same,liver weight after treatment,"[5]; fenofibrate 0.5% w/w in food, 14 days, from 13.8±0.5",19.7 ± 2.5 g
CC(C)(Oc1ccc(C(=O)c2ccc(Cl)cc2)cc1)C(=O)O [fenofibric acid],ob mRNA expression in primary rat adipocytes,ob gene [3]; 250 μM,no effect of fenofibrate on ob mRNA levels was detected
Cc1ccc(C)c(OCCCC(C)(C)C(=O)O)c1 [gemfibrozil],transcriptional activity of PPARs,[1],stimulate transcriptional activity of the PPAR nuclear hormone receptors
C[C@]12CCC(=O)C=C1CC[C@@H]1[C@@H]2[C@@H](O)C[C@@]2(C)[C@H]1CC[C@]2(O)C(=O)CO [hydrocortisone],time of maximal ob mRNA effect,ob gene [2]; hydrocortisone 100 μg/g body weight/day,2 days
same,increase of ob mRNA levels,"ob gene [2]; hydrocortisone 100 μg/g body weight/day, adipose tissue",more than 2 fold
same,ob mRNA levels in adipose tissue,ob gene [2]; [13],dose-dependent induction of ob mRNA levels in adipose tissue
same,β-actin mRNA levels,"ob gene [2]; hydrocortisone, entire treatment period",remained constant
same,body weight at end of treatment,"[5]; hydrocortisone 100 μg/g body weight, 20 days",slight decrease in body weight
same,body weight gain,[5]; [14],completely prevented this gain in body weight
same,reduction of food consumption vs untreated animals,[5]; [14],10-15%
same,body weight gain,[5]; [13],dose-dependent reduction in body weight gain
CC(=O)CCCCn1c(=O)c2c(ncn2C)n(C)c1=O [pentoxifylline],reduction of cachexia,cachexia,improve the conditions of some patients
CC(COc1ccccc1)N(CCCl)Cc1ccccc1 (centres unmarked) [phenoxybenzamide],weight gain and fat accumulation,[10],prevents weight gain and fat accumulation
N[C@@H](Cc1cc(I)c(Oc2cc(I)c(O)c(I)c2)c(I)c1)C(=O)O [thyroxine],body weight,"[9]; rats, literature",decrease in body weight
same,food intake,"[9]; rats, literature",increase in food intake
C[C@]12C=CC(=O)C=C1CC[C@H]1[C@@H]3C[C@@H](O)[C@](O)(C(=O)CO)[C@@]3(C)C[C@H](O)[C@@]12F [triamcinolone],ob mRNA levels,ob gene [2]; [11],increase of ob mRNA levels
same,food consumption,[5],reduced food consumption
N-propyl-thiouracil,body weight,"[9]; rats, literature",significant increase in body weight
same,food intake,"[9]; rats, literature",ingest less food
"corticotropin-releasing hormone: corticotropin-releasing hormone (SEEPPISLDLTFHLLREVLEMARAEQLAQQAHSNRKLMEII; ends and bridges not checked; UniProt P06850 154-194, looked up)",body weight,"[9]; hypothalamic administration, fat rats",reduces body weight
"insulin: insulin (1 U; Actrapid HMge, Novo Nordisk)",stimulatory effect of insulin on ob mRNA under clamp,ob gene [2]; hyper- or eu-glycemic clamps,maintained when plasma glucose levels were maintained at either high or low levels
same,"ob mRNA level, refeeding plus insulin",ob gene [2]; refeeding plus insulin after overnight fast,no additive effects on ob mRNA level
same,increase in adipose tissue ob gene expression relative to fasted rats,"ob gene [2]; single dose insulin (1 U), fasted rats, 4 hours",50-60%
same,increase in ob mRNA relative to actin controls,"ob gene [2]; single subcutaneous injection 1 I.U. insulin, 4 hours post injection, fasted rats",approximately two-fold increase
same,production of ob mRNA in primary rat adipocytes,"ob gene [3]; 1 or 10 nM insulin, 10% FBS",stimulated the production of ob mRNA in a dose dependent manner
same,production of ob messenger RNA in rat primary adipocytes,ob gene [3]; 48 hours,stimulated production of the ob messenger RNA
same,ob promoter luciferase expression in response to insulin,"human ob promoter [4]; pGL3-OB1 in 3T3-L1 cells, insulin, control plasmid unaffected",two-fold
same,increase of the level of ob mRNA (pGL3B-OB1 luciferase vector),"human ob promoter [6]; 200 nM insulin, 10% FBS, primary adipocytes with pGL3B-OB1",140%
